Measurements published in patent US11147272B2, “Pyridone compounds and agricultural and horticultural fungicides comprising the same as active ingredients” (MITSUI CHEMICALS AGRO, INC., priority 2017, dated 2021).

How the values were obtained:
Plasmopara viticola = assay: Test Example G: Downy mildew on vine; details: for Test G control value: 7 to 10 days after inoculation; for Test G control value class: Downy mildew on vine (Neomuscat), 2.5 ml/pot, assessed 7 to 10 days after inoculation
[1] = system: Colletotrichum orbiculare; assay: Test Example H: Anthracnose on cucumber; details: for Test H control value: 6 to 10 days after inoculation; for Test H control value class: Anthracnose on cucumber (Sagami Hanjiro), 2.5 ml/pot, assessed 6 to 10 days after inoculation
Botrytis cinerea = assay: Test Example B: Gray mold on tomato; details: for Test B control value class: class of control value
Magnaporthe grisea = assay: whole plant or invertebrate; format: in vivo; details: for Test A control value class: class of control value
[2] = system: Blumeria graminis f. sp. hordei; assay: Test Example D: Powdery mildew on barley; details: for Test D control value class: class of control value
Puccinia recondita = assay: Test Example E: Brown rust on wheat; format: in vivo; details: for Test E control value class: class of control value
Alternaia brassicicola = assay: Test Example C: Alternaria sooty spot on cabbage; format: in vivo; details: for Test C control value class: class of control value
Source text: Seeds of a test plant (cabbage variety: Shikidori) were planted and cultivated until the cotyledons extended.
<Control Value> Control value=100{1−(n/3)}

Phytophthora infestans = assay: whole plant or invertebrate; format: in vivo; details: for Test F control value class: class of control value
[3] = Downy mildew on vine, 250 ppm spray
[4] = Anthracnose on cucumber, 250 ppm spray
[5] = Gray mold on tomato, control value class
[6] = Blast on rice, control value class
[7] = Powdery mildew on barley, control value class
[8] = Brown rust on wheat, control value class
[9] = Alternaria sooty spot on cabbage, control value class
[10] = Late blight on tomato, control value class
[11] = 250 ppm drug solution sprayed (2.5 ml/pot), grape Neomuscat
[12] = 250 ppm drug solution sprayed (2.5 ml/pot), cucumber Sagami Hanjiro
[13] = 250 ppm drug solution sprayed on test plant
[14] = Alternaria sooty spot on cabbage

SMILES | Test G control value (Plasmopara viticola; [11]) | Test H control value [1, 12] | Test B control value (Botrytis cinerea; [13]) | Test A control value (Magnaporthe grisea; [13]) | Test D control value [2, 13] | Test E control value (Puccinia recondita; [13]) | Test C control value (Alternaia brassicicola; [13]) | Test F control value (Phytophthora infestans; [13]) | Test G control value class (Plasmopara viticola; 250 ppm spray) | Test H control value class ([1]; 250 ppm spray) | Test B control value class (Botrytis cinerea; Gray mold on tomato) | Test A control value class (Magnaporthe grisea; Blast on rice) | Test D control value class ([2]; Powdery mildew on barley) | Test E control value class (Puccinia recondita; Brown rust on wheat) | Test C control value class (Alternaia brassicicola; [14]) | Test F control value class (Phytophthora infestans; Late blight on tomato) | other results
CCCCCCCCCc1ccc(=O)n(CC)c1-c1ccc(F)cc1Cl [compound 273] |  |  |  |  |  |  |  |  |  |  |  |  |  |  |  |  | Test G control value (Plasmopara viticola; [3]): L (50% or less control value); Test H control value [1, 4]: L (50% or less control value); Test B control value (Botrytis cinerea; [5]): L (50% or less control value); Test A control value (Magnaporthe grisea; [6]): L (50% or less control value); Test D control value [2, 7]: H (more than 50% control value); Test E control value (Puccinia recondita; [8]): L (50% or less control value); Test C control value (Alternaia brassicicola; [9]): L (50% or less control value); Test F control value (Phytophthora infestans; [10]): L (50% or less control value)
CCCc1cc(Cl)c(=S)n(CC)c1-c1c(F)cc(F)cc1F [compound 430] | L (50% or less control value) | H (more than 50% control value) | H (more than 50% control value) | H (more than 50% control value) | H (more than 50% control value) | H (more than 50% control value) | H (more than 50% control value) | L (50% or less control value) |  |  |  |  |  |  |  |  | 
CCn1c(-c2c(F)cc(F)cc2F)c(C(O)C2CCCC2)cc(Cl)c1=O (centres unmarked) [compound 231] |  |  |  |  |  |  |  |  |  |  |  |  |  |  |  |  | Test G control value (Plasmopara viticola; [3]): H (more than 50% control value); Test H control value [1, 4]: H (more than 50% control value); Test B control value (Botrytis cinerea; [5]): H (more than 50% control value); Test A control value (Magnaporthe grisea; [6]): H (more than 50% control value); Test D control value [2, 7]: H (more than 50% control value); Test E control value (Puccinia recondita; [8]): H (more than 50% control value); Test C control value (Alternaia brassicicola; [9]): H (more than 50% control value); Test F control value (Phytophthora infestans; [10]): H (more than 50% control value)
CCn1c(-c2c(F)cc(F)cc2F)c(C(C)(O)C(C)C)cc(Cl)c1=O (racemic) [compound 106] |  |  |  |  |  |  |  |  | H (more than 50% control value) | H (more than 50% control value) | H (more than 50% control value) | H (more than 50% control value) | H (more than 50% control value) | H (more than 50% control value) | H (more than 50% control value) | H (more than 50% control value) | 
CCn1c(-c2c(F)cc(F)cc2F)c(C(C)(OC)C2CCCC2)cc(Cl)c1=O (centres unmarked) [compound 245] |  |  |  |  |  |  |  |  |  |  |  |  |  |  |  |  | Test G control value (Plasmopara viticola; [3]): L (50% or less control value); Test H control value [1, 4]: L (50% or less control value); Test B control value (Botrytis cinerea; [5]): L (50% or less control value); Test A control value (Magnaporthe grisea; [6]): L (50% or less control value); Test D control value [2, 7]: L (50% or less control value); Test E control value (Puccinia recondita; [8]): L (50% or less control value); Test C control value (Alternaia brassicicola; [9]): H (more than 50% control value); Test F control value (Phytophthora infestans; [10]): L (50% or less control value)
CCn1c(-c2ccc(F)cc2F)c(CC(C)C)cc(Br)c1=O [compound 120] |  |  |  |  |  |  |  |  | L (50% or less control value) | H (more than 50% control value) | H (more than 50% control value) | H (more than 50% control value) | H (more than 50% control value) | H (more than 50% control value) | H (more than 50% control value) | L (50% or less control value) | 
CC(C)c1cc(Cl)c(=O)n(C)c1-c1c(F)cc(F)cc1F [compound 15] |  |  |  |  |  |  |  |  | L (50% or less control value) | H (more than 50% control value) | H (more than 50% control value) | H (more than 50% control value) | H (more than 50% control value) | H (more than 50% control value) | H (more than 50% control value) | L (50% or less control value) | 
CCCCCCCc1cc(Cl)c(=O)n(CC)c1-c1ccc(F)cc1Cl [compound 268] |  |  |  |  |  |  |  |  |  |  |  |  |  |  |  |  | Test G control value (Plasmopara viticola; [3]): L (50% or less control value); Test H control value [1, 4]: L (50% or less control value); Test B control value (Botrytis cinerea; [5]): L (50% or less control value); Test A control value (Magnaporthe grisea; [6]): L (50% or less control value); Test D control value [2, 7]: H (more than 50% control value); Test E control value (Puccinia recondita; [8]): L (50% or less control value); Test C control value (Alternaia brassicicola; [9]): L (50% or less control value); Test F control value (Phytophthora infestans; [10]): L (50% or less control value)
CCc1cc(Br)c(=O)n(C)c1-c1ccc(OC)cc1C [compound 375] | H (more than 50% control value) | L (50% or less control value) | H (more than 50% control value) | L (50% or less control value) | H (more than 50% control value) | H (more than 50% control value) | H (more than 50% control value) | H (more than 50% control value) |  |  |  |  |  |  |  |  | 
CCC(C)c1ccc(=O)n(CC)c1-c1c(F)cc(F)cc1F (centres unmarked) [compound 31] |  |  |  |  |  |  |  |  | H (more than 50% control value) | H (more than 50% control value) | H (more than 50% control value) | H (more than 50% control value) | H (more than 50% control value) | H (more than 50% control value) | H (more than 50% control value) | L (50% or less control value) | 
CCn1c(-c2c(F)cc(OC)cc2F)c(C(C)(OC)C(C)C)cc(Br)c1=O (centres unmarked) [compound 467] | H (more than 50% control value) | H (more than 50% control value) | H (more than 50% control value) | H (more than 50% control value) | H (more than 50% control value) | H (more than 50% control value) | H (more than 50% control value) | L (50% or less control value) |  |  |  |  |  |  |  |  | 
CC(C)C(C)(O)c1cc(Br)c(=O)n(C)c1-c1c(F)cc(F)cc1F (centres unmarked) [compound 423] | H (more than 50% control value) | H (more than 50% control value) | H (more than 50% control value) | H (more than 50% control value) | H (more than 50% control value) | H (more than 50% control value) | H (more than 50% control value) | H (more than 50% control value) |  |  |  |  |  |  |  |  | 
CCCc1cc(Br)c(=O)n(C)c1-c1ccc(F)cc1Br [compound 415] | L (50% or less control value) | L (50% or less control value) | H (more than 50% control value) | H (more than 50% control value) | L (50% or less control value) | H (more than 50% control value) | H (more than 50% control value) | L (50% or less control value) |  |  |  |  |  |  |  |  | 
CCn1c(-c2c(F)cccc2F)c(C(OC)C(C)C)cc(Cl)c1=O (centres unmarked) [compound 63] |  |  |  |  |  |  |  |  | H (more than 50% control value) | H (more than 50% control value) | H (more than 50% control value) | H (more than 50% control value) | H (more than 50% control value) | H (more than 50% control value) | H (more than 50% control value) | L (50% or less control value) | 
CCn1c(-c2c(F)cc(F)cc2F)c(C=O)ccc1=O [compound 449] | L (50% or less control value) | L (50% or less control value) | H (more than 50% control value) | L (50% or less control value) | L (50% or less control value) | L (50% or less control value) | L (50% or less control value) | L (50% or less control value) |  |  |  |  |  |  |  |  | 
CCn1c(-c2c(F)cc(OC)cc2F)c(C(OC)C(C)C)cc(Cl)c1=O (centres unmarked) [compound 71] |  |  |  |  |  |  |  |  | L (50% or less control value) | H (more than 50% control value) | H (more than 50% control value) | H (more than 50% control value) | H (more than 50% control value) | H (more than 50% control value) | H (more than 50% control value) | L (50% or less control value) | 
